Results taken from US20230357064A1, “ENZYME BOOSTER TECHNOLOGY FOR ADVANCED DECONTAMINATION OF PETROLEUM HYDROCARBONS” (priority 2022, published 2023).
≈ marks a conversion by molar mass, not a printed value.

Test: Silicone O-ring passive dosing: dissolved concentrations, partitioning, losses and release in MSM
Details: for solubility: 15 °C, aqueous buffer
Method: It is very important to control the freely dissolved PAH concentration and keep it unchanged throughout the experiment by equilibrium partitioning from the silicone. […] During the loading of PAHs, individual PAHs were dissolved in methanol (loading solvent) to saturation level. To create the PAHs mixture, the concentration in the loading solution was calculated using partitioning coefficients for each PAH from Gilbert et. al. (2015).^39 Then, cleaned and dried O-rings were added to 50 mL volumes of loading solution kept at 15±1° C. A criterion for successful application of the passive dosing system was ensuring the mass of PAHs dissolved into methanol was much greater than that partitioned into the silicon O-ring which in turn was greater than that partitioned into the MSM^37. After 24, 72 and 128 h, O-ring was removed from each loading batch, and they were transferred into MSM to measure O-ring (Crest) and freely dissolved concentration of each PAH (Cfree) at 0.33, 0.66, 1.33, 2.66, 5.33, 12, 24,48, and 72 h. The partition coefficient between different phases (KMethanol:Oring and KOring:MSM) were obtained using the measured Ctest,initial and Cfree, initial. The obtained partitioning coefficient (KOring:MSM) was applied to calculate the required O-ring volume to avoid depletion (<5%) using the following Equation: […]
With a 5 mL MSM and partitioning coefficients from Table 10, the O-ring volume needed for each PAH and PAH mixture were determined. The initial concentrations of freely dissolved PAHs (Cfree initial) and O-ring concentrations (Ctest) in medium samples were calculated via the approach published by Butler et. al (2013).^37 Finally, for the determination of the losses, freely dissolved concentrations of PAHs were directly measured in medium samples to compare with calculated Cfree initial.
Two controls were included to study biodegradation versus dissolved concentrations. The first control contained 5 mL of strain inoculating suspension in passive doing vials with O-rings to account for losses through volatilization. The second control contained 5 mL of MSM without any strain in passive dosing vials in the presence of O-ring loaded with PAHs to account for losses through […].

Row | SMILES | solubility | Cfree (dissolved concentration measured in MSM) (MSM) | Cfree initial (freely dissolved concentration) (MSM) | losses through volatilization (control 1, passive dosing vials) | Ctest initial (O-ring concentration) (silicone O-ring) | Cfree (dissolved concentration measured in MSM) | Cfree initial (freely dissolved concentration) | Ctest initial (O-ring concentration) | losses through volatilization | time after which water concentration decreased due to volatility
1 | c1ccc2cc3ccccc3cc2c1 [Anthracene] | 3.11 µg/mL (≈ 17.4 µM) | 2.66 mg/L | 2.98 mg/L | 4% | 94.1 mg/L |  |  |  |  | 
2 | c1ccc2ccccc2c1 [Naphthalene] | 20.5 µg/mL (≈ 160 µM) |  |  |  |  | 17.73 mg/L | 18.31 mg/L | 97.8 mg/L | 19% | about 4 h
3 | c1ccc2c(c1)ccc1ccccc12 [Phenanthrene] | 1.04 µg/mL (≈ 5.84 µM) |  |  |  |  | 0.91 mg/L | 1.01 mg/L | 48.6 mg/L | 0% | 
